In patent publication US10301280B2 (Plexxikon Inc., priority 2012, dated 2019):

What was measured:
[1] = molecular target: c-kit kinase (Homo sapiens (Human), UniProt P10721); test: c-Kit biochemical assay (AlphaScreen); conditions: c-kit biochemical inhibitory activity
Procedure: Assays for biochemical cell-based activity of c-kit kinase are known in the art, for example, as described in U.S. Pat. Nos. 7,498,342 and 7,846,941, the disclosures of which are hereby incorporated by reference as it relates to such assays. The c-kit (or kinase domain thereof) is an active kinase in AlphaScreen. IC50 values are determined with respect to inhibition of c-Kit kinase activity, where inhibition of phosphorylation of a peptide substrate is measured as a function of compound concentration. Compounds to be tested were dissolved in DMSO to a concentration of 20 mM. These were diluted 30 μl into 120 μl of DMSO (4 mM) and 1 μl was added to an assay plate. These were then serially diluted 1:3 (50 μl to 100 μl DMSO) for a total of 8 points. Plates were prepared such that each kinase reaction is 20 μl in 1× kinase buffer (50 mM HEPES, pH 7.2, 5 mM MgCl2, 5 mM MnCl2, 0.01% NP-40, 0.2% BSA), 5% DMSO and 10 µM ATP. Substrate was 100 nM biotin-(E4Y)3 (Open Source Biotech, Inc.). C-kit kinase was at 0.1 ng per sample. After incubation of the kinase reaction for 1 hour at room temperature, 5 μl of donor beads (Streptavidin coated beads (Perkin Elmer Life Science) final concentration 1 μg/ml) in stop buffer (50 mM EDTA in 1× kinase buffer) was added, the sample was mixed and incubated for 20 minutes at room temperature before adding 5 μl of acceptor beads (PY20 coated beads (Perkin Elmer Life Science) final concentration 1 μg/ml) in stop buffer. The samples were incubated for 60 minutes at room temperature and the signal per well was read on AlphaQuest reader. Phosphorylated substrate results in binding of the PY20 antibody and association of the donor and acceptor beads such that signal correlates with kinase activity. The signal vs. compound concentration was used to determine the IC50.
Compounds were also tested using a similar assay with a 10-fold higher ATP concentration. For these samples, compounds to be tested were dissolved in DMSO to a concentration of 20 mM. These were diluted 30 μl into 120 μl of DMSO (4 mM) and 1 μl was added to an assay plate. These were then serially diluted 1:3 (50 μl to 100 μl DMSO) for a total of 8 points. Plates were prepared such that each kinase reaction is 20 μl in 1× kinase buffer (25 mM HEPES, pH 7.5, 2 mM MgCl2, 2 mM MnCl2, 0.01% Tween-20, 1 mM DTT, and 0.001% BSA), 5% DMSO and 100 µM ATP. Substrate was 30 nM biotin-(E4Y)10 (Upstate Biotech, Cat#12-440). C-kit kinase was at 1 ng per sample. After incubation of the kinase reaction for 1 hour at room temperature, 5 μl of donor beads (Streptavidin coated beads (Perkin Elmer Life Science) final concentration 10 μg/ml) in stop buffer (25 mM HEPES pH 7.5, 100 mM EDTA, 0.3% BSA) was added, the sample was mixed and incubated for 20 minutes at room temperature before adding 5 μl of acceptor beads (PY20 coated beads (Perkin Elmer Life Science) final concentration 10 μg/ml) in stop buffer. The samples were incubated for 60 minutes at room temperature and the signal per well was read on AlphaQuest or Envision reader (Perkin Elmer Life Science). Phosphorylated substrate results in binding of the PY20 antibody and association of the donor and acceptor beads such that signal correlates with kinase activity. The signal vs. compound concentration was used to determine the IC50.
The c-kit enzyme used in the above assay was either obtained from Cell Signaling Technology (Cat. #7754) or was prepared as follows: A plasmid encoding kit (DNA and encoded protein sequences shown below) was engineered using common polymerase chain reaction (PCR) methods. Complementary DNA cloned from various human tissues were purchased from Invitrogen, and these were used as substrates in the PCR reactions. Specific custom synthetic oligonucleotide primers were designed to initiate the PCR product, and also to provide the appropriate restriction enzyme cleavage sites for ligation with the plasmids. […]

[2] = molecular target: c-kit mutant D816V (Homo sapiens (Human), UniProt P10721, D816V/DEL694-753); test: c-Kit mutant D816V biochemical assay (AlphaScreen); conditions: c-kit D816V biochemical inhibitory activity
Sequence of c-kit mutant D816V (P10721 other isoform, or with tags, fused parts or gaps D816V/del 694-753): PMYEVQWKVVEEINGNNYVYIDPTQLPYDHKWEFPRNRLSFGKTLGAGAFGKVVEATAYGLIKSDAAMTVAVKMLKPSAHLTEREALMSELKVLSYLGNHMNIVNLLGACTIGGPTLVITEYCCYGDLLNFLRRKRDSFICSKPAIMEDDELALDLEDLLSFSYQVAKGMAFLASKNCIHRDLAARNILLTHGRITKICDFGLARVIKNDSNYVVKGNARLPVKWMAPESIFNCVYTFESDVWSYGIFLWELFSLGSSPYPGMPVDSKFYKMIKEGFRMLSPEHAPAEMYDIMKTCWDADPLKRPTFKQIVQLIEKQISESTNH
Procedure, shortened: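 His-tagged c-Kit D816V kinase domain (551-934, Δ694-753, E. coli) phosphorylating 30 nM biotin-(E4Y)10 at 10 μM ATP in HEPES pH 7.2 with Mg/Mn, 5% DMSO, 30 min at room temperature. PY20-acceptor/streptavidin-donor AlphaScreen detection after EDTA stop. IC50 from 8-point 1:3 titration.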

[3] = test system: BaF3-FL KIT D816V or BaF3-FL KIT V560G/D816V cell line; test: Cell-based assays of c-Kit mutant kinase activity (cell growth, ATPlite); conditions: at least one of the c-kit cell assays of Example 26
Procedure, shortened: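 IC50 derived from ATP-content luminescence (ATPlite) after three-day compound exposure at 37° C., 5% CO2. Cells: BaF3 rendered growth-dependent on full-length human KIT D816V or V560G/D816V, 1×10^4 per well, RPMI plus 10% FBS; 8 points, 1:3 steps, maximum 10 μM final, 0.2% DMSO.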

Sequence of c-kit kinase (P10721 26-976): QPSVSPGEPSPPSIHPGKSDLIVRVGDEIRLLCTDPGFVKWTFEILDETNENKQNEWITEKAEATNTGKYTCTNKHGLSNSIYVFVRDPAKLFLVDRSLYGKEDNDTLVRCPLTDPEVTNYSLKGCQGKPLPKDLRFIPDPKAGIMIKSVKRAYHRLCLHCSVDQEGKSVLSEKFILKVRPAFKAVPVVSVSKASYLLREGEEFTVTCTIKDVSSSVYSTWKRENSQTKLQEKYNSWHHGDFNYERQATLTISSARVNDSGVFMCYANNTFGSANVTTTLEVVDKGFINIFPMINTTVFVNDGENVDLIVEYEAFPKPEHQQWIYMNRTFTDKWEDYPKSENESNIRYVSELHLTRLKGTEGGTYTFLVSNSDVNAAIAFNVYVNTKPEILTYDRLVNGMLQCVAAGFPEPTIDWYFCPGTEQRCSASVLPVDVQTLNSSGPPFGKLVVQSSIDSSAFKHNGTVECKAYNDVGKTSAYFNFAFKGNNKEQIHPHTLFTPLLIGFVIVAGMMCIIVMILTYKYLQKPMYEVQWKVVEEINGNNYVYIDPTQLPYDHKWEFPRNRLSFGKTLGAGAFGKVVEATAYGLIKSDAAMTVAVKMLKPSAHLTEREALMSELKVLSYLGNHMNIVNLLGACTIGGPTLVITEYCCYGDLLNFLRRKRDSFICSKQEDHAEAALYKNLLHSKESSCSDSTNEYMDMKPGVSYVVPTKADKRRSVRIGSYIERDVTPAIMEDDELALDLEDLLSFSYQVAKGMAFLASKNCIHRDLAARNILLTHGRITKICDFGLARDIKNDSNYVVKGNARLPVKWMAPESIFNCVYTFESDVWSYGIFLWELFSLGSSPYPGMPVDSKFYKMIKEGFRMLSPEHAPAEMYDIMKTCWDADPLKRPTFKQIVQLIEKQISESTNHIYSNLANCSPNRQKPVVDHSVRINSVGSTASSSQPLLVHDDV

SMILES	IC50 [1] [µM]	IC50 [2] [µM]	IC50 [3] [µM]
O=C(Nc1cnc2[nH]c(-c3ccccc3)cc2c1)c1n[nH]c2ccc(F)cc12 [P-2010, 5-fluoro-N-(2-phenyl-1H-pyrrolo[2,3-b]pyridin-5-yl)-1H-indazole-3-carboxamide]	10 to 200	10 to 200	–
O=S(=O)(Nc1cnc2[nH]c(-c3ccccc3)cc2c1)c1cn[nH]c1 [P-2018]	10 to 200	10 to 200	–
NC(=O)c1cccc(C(=O)Nc2cnc3[nH]c(-c4ccc(F)cc4)cc3c2)c1 [P-2020, N3-[2-(4-fluorophenyl)-1H-pyrrolo[2,3-b]pyridin-5-yl]benzene-1,3-dicarboxamide]	1 to 10	–	< 10
Cc1n[nH]c(C(=O)Nc2cnc3[nH]c(-c4ccc(F)c(C)c4C)cc3c2)c1C [P-2279, N-[2-(4-fluoro-2,3-dimethyl-phenyl)-1H-pyrrolo[2,3-b]pyridin-5-yl]-3,4-dimethyl-1H-pyrazole-5-carboxamide]	10 to 200	–	< 10
Cc1cc2cc(NC(=O)c3cccc4n[nH]cc34)cnc2[nH]1 [P-2301, N-(2-methyl-1H-pyrrolo[2,3-b]pyridin-5-yl)-2H-indazole-4-carboxamide]	10 to 200	–	< 10
